Measured values as given in article PMC10202811 (Nature Medicine, 2023).
“And” between values parts separate entries of the source, which are not always exact repeats. Equal entries are not always repeated. Where two headings read alike, the source gives them in different places.

Assay: Plasma pharmacokinetics of lorlatinib at steady state (LC-MS/MS, non-compartmental analysis)
Assay type: in vivo, human
Set-up: Vz_F / Cmax_D / AUMClast / AUMC_TAU: unit not given here
Conditions: for Tlag: unit assumed
Excerpt: Lorlatinib was isolated from human plasma by a liquid-iquid extraction procedure. […] A linear-log trapezoidal method was used [NT] A best-fit method was used to estimate terminal elimination and to extrapolate any plasma concentration versus time profiles to compute [NT].

[1] = Cycle 1 Day 1, Cohort B2, 115 mg/m2 per dose
[2] = Cycle 1 Day 1, Cohort A1, 45 mg/m2 per dose, individual patients
[3] = Cycle 1 Day 1, Cohort A1, 60 mg/m2 per dose, individual patients
[4] = Cycle 1 Day 1, Cohort A1, 75 mg/m2 per dose, individual patients
[5] = Cycle 1 Day 1, Cohort A1, 95 mg/m2 per dose, individual patients
[6] = Cycle 1 Day 1, Cohort A1, 115 mg/m2 per dose, individual patients
[7] = Cycle 1 Day 1, Cohort A2, 100 mg per dose, individual patients
[8] = Cycle 1 Day 1, Cohort A2, 150 mg per dose, individual patients
[9] = Cycle 1 Day 1, Cohort A2, 150 mg per dose, individual patients, in ng/mL
[10] = Cycle 1 Day 1, Cohort A2, 150 mg per dose, individual patients, in ng·h/mL (unit assumed)
[11] = Cycle 1 Day 1, Cohort A2, 150 mg per dose, individual patients, listed as lorlatinib, in h (unit assumed)
[12] = Cycle 1 Day 1, patient N0773, Cohort B2, 115 mg/m2 per dose, Dose 75
[13] = Cycle 1 Day 15, Cohort A1, 95 mg/m2 per dose
[14] = Cycle 1 Day 15, Cohort A1, 95 mg/m2 per dose, in h (unit assumed)
[15] = Cycle 1 Day 15, Cohort A1, 115 mg/m2 per dose
[16] = Cycle 1 Day 15, Cohort A2, 150 mg per dose
[17] = Cycle 1 Day 15, Cohort A2, 150 mg per dose, in h (unit assumed)
[18] = Cycle 1 Day 15, Cohort A2, 150 mg per dose, in ng·h/mL (unit assumed)
[19] = Cycle 1 Day 15, Cohort B2, 95 mg/m2 per dose
[20] = Cycle 1 Day 15, Cohort B2, 95 mg/m2 per dose, in h (unit assumed)
[21] = Cycle 1 Day 15, Cohort B2, 95 mg/m2 per dose, in ng/mL
[22] = Cycle 1 Day 15, Cohort B2, 95 mg/m2 per dose, in ng·h/mL (unit assumed)
[23] = Cycle 1 Day 15, Cohort B2, 115 mg/m2 per dose
[24] = Cycle 1 Day 15, Cohort A1, 45 mg/m2 per dose, individual patients
[25] = Cycle 1 Day 15, Cohort A1, 45 mg/m2 per dose, individual patients, in h (unit assumed)
[26] = Cycle 1 Day 15, Cohort A1, 60 mg/m2 per dose, individual patients
[27] = Cycle 1 Day 15, Cohort A1, 60 mg/m2 per dose, individual patients, in h (unit assumed)
[28] = Cycle 1 Day 15, Cohort A1, 75 mg/m2 per dose, individual patients
[29] = Cycle 1 Day 15, Cohort A1, 75 mg/m2 per dose, individual patients, in h (unit assumed)
[30] = Cycle 1 Day 15, Cohort A1, 75 mg/m2 per dose, individual patients, in ng·h/mL (unit assumed)
[31] = Cycle 1 Day 15, Cohort A1, 95 mg/m2 per dose, individual patients
[32] = Cycle 1 Day 15, Cohort A1, 95 mg/m2 per dose, individual patients, in h (unit assumed)
[33] = Cycle 1 Day 15, Cohort A1, 115 mg/m2 per dose, individual patients

C[C@H]1Oc2cc(cnc2N)-c2c(nn(C)c2C#N)CN(C)C(=O)c2ccc(F)cc21 [Lorlatinib, (10R)-7-amino-12-fluoro-2,10,16-trimethyl-15-oxo-10,15,16,17-tetrahydro-2H-8,4-(metheno)pyrazolo[4,3-h][2,5,11]-benzoxadiazacyclotetradecine-3-carbonitrile] gave a Tlag (Cycle 1 Day 1, Cohort A2, 150 mg per dose) of 0 h, a Tlag (Cycle 1 Day 1, Cohort B2, 95 mg/m2 per dose) of 0 h and a Tlast [1] of 24 h. It also gave a Tmax (Cycle 1 Day 1, Cohort B2, 115 mg/m2 per dose, in h (unit assumed)) of 1, a Tmax (Cycle 1 Day 1, Cohort B2, 115 mg/m2 per dose, listed as lorlatinib, in h (unit assumed)) of 2 and a Tlag [1] of 0 h. It also gave a Tlast [2] of 24 h, a Tmax (Cycle 1 Day 1, Cohort A1, 45 mg/m2 per dose, individual patients, in h (unit assumed)) of 2 and a Tlag [2] of 0 h. It also gave a Tlast [3] of 24 h, a Tlag [3] of 0 h and a Tlast [4] of 24 h. The Tmax (Cycle 1 Day 1, Cohort A1, 75 mg/m2 per dose, individual patients, in h (unit assumed)) was 2, the Cmax (Cycle 1 Day 1, Cohort A1, 75 mg/m2 per dose, individual patients, in ng/mL) was 779 and the Tlag [4] was 0 h. The Tlast [5] was 24 h, the Tlag [5] was 0 h and the AUMClast [6] was 125336.7763. The Cmax_D [6] was 11.08, the Tlast [6] was 24 h and the Clast (Cycle 1 Day 1, Cohort A1, 115 mg/m2 per dose, individual patients, in ng/mL) was 172. For the same compound, the Tlag [6] was 0 h, the Tlast [7] was 24 h and the Tmax (Cycle 1 Day 1, Cohort A2, 100 mg per dose, individual patients, in h (unit assumed)) was 2. The Tlag [7] was 0 h, the AUMClast [8] was 49463.3786 and 88733.21472 and 92632.60987 and the Cmax_D [8] was 3.76 and 5.527 and 7.067. The Tlast [8] was 24 h, the Tmax (Cycle 1 Day 1, Cohort A2, 150 mg per dose, individual patients, in h (unit assumed)) was 2 and the Clast [9] was 70.8 and 151 and 127. For the same compound, the Cmax [9] was 829 and 1060, the AUCall [10] was 9320 and 11097.69267 and the AUClast [10] was 9320 and 11097.69267. The MRTlast [11] was 9.52 and 8.347, the Tmax [11] was 2 and the Tlag [8] was 0 h. The AUMClast [12] was 89144.88493, the Cmax_D [12] was 22.13 and the Tlast [12] was 24 h. It also gave a Tlag [12] of 0 h, an AUC_TAU_%Extrap [13] of 0% and a Tlast [13] of 24 h. The Tmax [14] was 1, the Tmin [14] was 0 and the Cavg (Cycle 1 Day 15, Cohort A1, 95 mg/m2 per dose, in ng/mL) was 288.1. The Tlag [13] was 0 h, the AUC_TAU_%Extrap [15] was 0% and the Tlast [15] was 24 h. It also gave a Tmin (Cycle 1 Day 15, Cohort A1, 115 mg/m2 per dose, in h (unit assumed)) of 0, a Tlag [15] of 0 h and an AUC_TAU_%Extrap [16] of 0%. For the same compound, the AUMC_TAU [16] was 48864.79941 and 48509.22474 and 72138.31531 and 51031.1075 and 68396.67554 and 68306.96584 and 82226.35285, the Accumulation_Index [16] was 1.404 and 1.221 and 1.584 and 1.215 and 1.756 and 1.451 and 1.861 and the CLss_F [16] was 30.01 and 26.36 and 19.5 and 22.81 and 21.08 and 21.41 and 18.08. For the same compound, the Tlast [16] was 24 h, the Vz_F [16] was 578.5 and 370.3 and 469.1 and 316.3 and 600.6 and 439.8 and 562.8 and the Tmax [17] was 1. For the same compound, the Tmin [17] was 0, the Cavg (Cycle 1 Day 15, Cohort A2, 150 mg per dose, in ng/mL) was 208.3 and 237.1 and 320.6 and 274 and 296.5 and 291.9 and 345.7 and the AUC_TAU [18] was 5690 and 7694 and 6577 and 7116 and 7005. For the same compound, the AUCall [18] was 5690 and 7694 and 6577 and 7116 and 7005, the AUClast [18] was 5690 and 7694 and 6577 and 7116 and 7005 and 8297 and the Tmax (Cycle 1 Day 15, Cohort A2, 150 mg per dose, read-out: Tmax) was 1 h (4×) and 2 h. It also gave a Tlag [16] of 0 h, an AUC_%Extrap_obs [19] of 3.629% and an AUC_%Extrap_pred [19] of 3.558%. The AUC_TAU_%Extrap [19] was 0%, the Accumulation_Index [19] was 1.029 and the Tlast [19] was 24 h. The Vz_F [19] was 73.35, the HL_Lambda_z [20] was 4.68 and the Tmax [20] was 2. It also gave a Tmin [20] of 0, a Lambda_z (Cycle 1 Day 15, Cohort B2, 95 mg/m2 per dose, in h-1 (unit assumed)) of 0.1481 and a Clast_pred [21] of 30.18. The Cmax [21] was 721, the AUC_TAU [22] was 5523 and the AUCall [22] was 5523. It also gave an AUClast [22] of 5523, a Tlag [19] of 0 h and an AUC_TAU_%Extrap [23] of 0%. The Tlast [23] was 24 h, the Tmax (Cycle 1 Day 15, Cohort B2, 115 mg/m2 per dose, in h (unit assumed)) was 1 and the Tmax (Cycle 1 Day 15, Cohort B2, 115 mg/m2 per dose, listed as lorlatinib, in h (unit assumed)) was 2. For the same compound, the Tlag [23] was 0 h, the AUC_TAU_%Extrap [24] was 0% and the Tlast [24] was 24 h. For the same compound, the Vz_F [24] was 335.3, the Tmax [25] was 2 and the Tmin [25] was 0. For the same compound, the Tlag [24] was 0 h, the AUC_TAU_%Extrap [26] was 0% and the Tlast [26] was 24 h. The Tmax [27] was 2, the Tmin [27] was 0 and the Cmax (Cycle 1 Day 15, Cohort A1, 60 mg/m2 per dose, individual patients, in ng/mL) was 343. For the same compound, the Tlag [26] was 0 h, the AUC_TAU_%Extrap [28] was 0% and the Tlast [28] was 24 h. For the same compound, the MRTINF_obs [29] was 9.338, the MRTINF_pred [29] was 9.311 and the Tmin [29] was 0. The AUCINF_obs [30] was 3021, the AUCINF_pred [30] was 3018 and the Tlag [28] was 0 h. It also gave an AUC_TAU_%Extrap [31] of 0%, a Tlast [31] of 24 h and an MRTINF_obs [32] of 11.95. For the same compound, the MRTINF_pred [32] was 11.86, the Tmax [32] was 2 and the Tmin [32] was 0. It also gave a Tlag [31] of 0 h, an AUC_%Extrap_obs [33] of 23.66% and an AUC_%Extrap_pred [33] of 23.4%. The AUC_TAU_%Extrap [33] was 0%, the AUMC_TAU [33] was 68314.30452 and the Accumulation_Index [33] was 1.333. It also gave a CLss_F [33] of 15.84, a Cmax_D [33] of 10.38 and a Fluctuation% [33] of 351.8%. The Fluctuation%_Tau [33] was 351.8%.
